Assay results from patent US20260256667A1, “ORAL CARE COMPOSITION FOR INCREASING SELF CONFIDENCE” (GIVAUDAN SA, priority 2023, published 2026).

Key:
[1] = Breath-freshness self-assessment (three questions) after teeth brushing, home use test; type: in vivo, human
Procedure: (§1) Twenty-six participants were pre-screened to ensure that they had no underlying dental problems.
(§2) A repeated measures design, with a randomised repeated trial per product was used. Three toothpastes were prepared with: • Control: peppermint flavour • EC180—150 ppm: peppermint flavour+150 ppm EC180 (concentration in toothpaste) • EC180—250 ppm: peppermint flavour+250 ppm EC180 (concentration in toothpaste)
(§3) Participants were given duplicate tubes of each toothpaste (6 tubes in total). All products were assigned different codes and presented in white tubes to prevent colour as a confounding factor.
(§4) The participants did the test each morning in their homes as per their usual teeth cleaning time (between 7:00 am and 10:00 am) and were asked to refrain from using other oral practices apart from brushing with test product. Testing was done with one product a day with a one-day separation left before testing the next product. A questionnaire was sent to them via an online link for them to complete before teeth cleaning and after teeth cleaning. Responses before teeth cleaning were recorded as their baseline scores.
The data for this test was collected through an online questionnaire set up via SurveyMonkey Audience. The questionnaires on breath-freshness and self-confidence was set up for participants to respond to at the five time-points: (i) pre-brush baseline (ii) 0 minutes immediately post-bush (iii) 30 minutes post-brush (iv) 60 minutes post-brush. A total of 47 datasets per product was input for analysis and 5 incompletes were removed.
Breath freshness was self-evaluated with a set of three questions asking (i) whole mouth clean feel; (ii) natural freshness in mouth; and (lii) cooling sensation in the mouth. […] Breath assessment recorded before teeth brushing was categorized as the baseline measure.
(§5) To evaluate a change effect from the baseline (pre-brush) to the different times post-brush, a mean difference between each time-point to the baseline mean score was calculated to obtain delta values.

[2] = Self-confidence, 9-item subscale of the modified CSAI-2 questionnaire, after teeth brushing, home use test; type: in vivo, human
Procedure: Individual's thoughts and feelings in relation to their self-confidence as per their perceived oral health (such as breath) were measured using a 9-item subscale of the modified Competitive State Anxiety Questionnaire (CSAI-2).
The nine items in the Self-confidence scale include five that describe positive expectations (“I feel self-confident”, “I am confident I can meet the challenge”, “I'm confident about performing well”, “I'm confident because I mentally picture myself reaching my goal”, and “I'm confident about coming through under pressure”), and four that describe a generalised feeling of calmness (“I feel calm”, “I feel comfortable”, “I feel secure”, “I feel mentally relaxed”). All items were rated on a 4-point scale anchored by 1 (“Not at all”) and 4 (“Very much so”).
as §1, §2, §3, §4
The questionnaires on breath-freshness and self-confidence was set up for participants to respond to at the five time-points: (i) pre-brush baseline (ii) 0 minutes immediately post-bush (iii) 30 minutes post-brush (iv) 60 minutes post-brush. A total of 47 datasets per product was input for analysis and 5 incompletes were removed.
Self-confidence was measured with the 9-Item subscale of the Modified Competitive State Inventory-2 (CSAI-2). The questionnaire uses a 4-point scale as follows:
1—not at all; 2—somewhat; 3—moderately so; 4—very much so.
as §5

[3] = employed in oral care compositions such as mouthwashes or toothpastes; cited from earlier work
[4] = 60 minutes from brushing with a toothpaste containing EC180

## CC(C)[C@@H]1CC[C@@H](C)C[C@H]1C(=O)Nc1ccc(CC#N)cc1 [EC180, (1R,2S,5R)—N-(4-cyanomethylphenyl)-p-menthane carboxamide]
[1]; 10 minutes after brushing, in a flavoured tooth-paste, FIG. 1
  level of breath freshness vs flavoured tooth paste alone: same level of breath freshness
[1]; [4]
  breath freshness relative to the initial level: about 60%
[1]; up to 10 minutes after brushing, toothpaste comprising EC180
  change of breath freshness compared to immediately after brushing (0 min): only minimally increases
[2]; 10 minutes after brushing, in a flavoured tooth-paste, FIG. 2
  level of self-confidence vs flavoured tooth paste alone: significantly increased
[2]; 10 minutes after brushing, toothpaste comprising EC180
  change of level of self-confidence compared to immediately after brushing (0 min): noticeable increase
[2]; [4]
  self-confidence compared to the level attained immediately after brushing: more than 80%
[2]; in a flavoured tooth-paste, effect still observed 60 min after brushing
  period of time the level of self-confidence remained elevated after teeth brushing: up to 30 min
[3]
  cooling effect: strong and long-lasting cooling effect
